Measurements from the METLIN SMRT retention time set (Domingo-Almenara et al. 2019).

Test: gradient 5% acetonitrile 3 min, to 50% in 2 min, to 85% in 15 min, held 3 min, 100 µL/min
Conditions: column: Zorbax Extend-C18 2.1 x 50 mm; eluents: water / acetonitrile, 0.1% formic acid
Procedure, shortened: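 A Zorbax Extend-C18 column (2.1 × 50 mm, 1.8 μm) run at 100 μL/min with water and acetonitrile, both containing 0.1% formic acid, separated mixtures of ~100 pure standards. The HPLC was coupled to a quadrupole time-of-flight mass spectrometer operated in positive and negative ionization mode, with dead and dwell volumes of 40 μL and 900 μL. Each retention time was taken from a computationally picked adduct peak that was then manually inspected.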

| SMILES | RP-LC retention time [s] |
| --- | --- |
| O=C(Nc1cccc(-c2ccc(N3CCOCC3)nn2)c1)Nc1ccc(F)cc1F | 723 |
| Cc1sc(-c2cc(C(F)(F)F)on2)cc1S(=O)(=O)N1CCN(c2cccc(Cl)c2)CC1 | 1440 |
| NC(=O)C1CCN(C(=O)CSc2nnc(-c3sc4ncccc4c3N)n2C2CC2)CC1 | 606 |
| CN1CCN(c2ncc(C(=O)O)c(-c3ccccc3)n2)CC1 | 562 |
| Cc1ccc(NC(=O)Cn2nc(N3CCCCCC3)c3ccccc3c2=O)c(F)c1 | 1190 |
| Cc1ccc(Nc2c(-c3ccc(Cl)cc3)nc3ccc(C)cn23)cc1 | 836 |
| O=C(Nc1cnc(N2CCCCC2)nc1)c1cccs1 | 842 |
| O=C(Cn1c(=O)c2cc(-c3cccs3)nn2c2ncccc21)Nc1ccc(F)cc1F | 872 |
| O=c1ccc(-c2ccccc2Br)nn1Cc1nc(-c2ccc3c(c2)OCO3)no1 | 1040 |
| Cc1cccc(NC(=O)CSc2cc(N3CCN(c4ccccc4F)CC3)ncn2)c1C | 1130 |
| Cc1cccc(NC(=O)N2CCc3nc[nH]c3C2)c1C | 565 |
| Cn1c(=O)c2ccn(CC(=O)N3CCN(c4ccccn4)CC3)c2n(C)c1=O | 546 |
| O=C(NC1CCCCC1)c1ccc2ccnc(N3CCN(c4ccc(Cl)cc4)CC3)c2c1 | 986 |
| COc1ccc(C(=O)N2CCc3cc(-c4csc(C)n4)ccc32)cc1F | 951 |
| O=C(NCC1OCCc2ccccc21)C(=O)Nc1ccccc1 (stereo not drawn) | 956 |
| CCCOc1nc2ccccc2nc1N1CCCC(C(=O)NCc2ccccc2C)C1 (stereo not drawn) | 1240 |
| COc1ccc(-c2nc3ncccn3c2Nc2c(C)cccc2C)cc1 | 765 |
| O=C(NCc1csc(-c2ccccc2)n1)[C@H]1CCCN1C(=O)c1cccc(Br)c1 | 889 |
| N#Cc1cccc(-c2nc(-c3ccc4c(c3)ncn4CCN3CCCCC3)no2)c1 | 632 |
| Cc1sc(-c2nc(-c3ccccc3)no2)cc1S(=O)(=O)N1CCN(c2ncccn2)CC1 | 1210 |
| CSc1ccc(-c2nc3ccc(C)cn3c2Nc2ccc3c(c2)OCCO3)cc1 | 716 |
| O=C(NCC1CC1)c1cn(-c2ncccc2-c2nc(-c3ccccc3)no2)cn1 | 848 |

| SMILES | RP-LC retention time [s] |
| --- | --- |
| CCCCNC(=O)C1CCc2nc(N3CCC(C)CC3)ncc2C1 (stereo not drawn) | 758 |
| COC(=O)c1cc(C2CC2)nc2c1c(=O)n(Cc1ccc(Cl)cc1)c(=O)n2C | 1180 |
| Cc1ccc(CC(=O)Nc2ccc(-c3nc(Cn4nc(C)c(C)c4C)c(C)o3)cc2)cc1 | 998 |
| O=C(NCc1ccccc1Cl)c1coc(NC(=O)c2cccs2)n1 | 719 |
| Cc1ccc(S(=O)(=O)Nc2ccc(-c3cn4cccc(C)c4n3)cc2)c(C)c1 | 688 |
| C=CCNC(=O)Cc1c(C)n(CC=C)c2nc(-c3ccccc3)nn2c1=O | 740 |
| Nc1cc(C2CCN(C(=O)NCc3ccc(F)cc3)CC2)no1 | 671 |
| O=C(CN1CCc2[nH]c3c(F)c(Cl)ccc3c(=O)c2C1)Nc1cc(F)ccc1F | 691 |
| CCCOc1ccc(C2C(C(=O)N3CCOCC3)=C(C)NC3=C2C(=O)CCC3)cc1OC (stereo not drawn) | 964 |
| CC1CCN(S(=O)(=O)c2ccc(-c3nnc(C(=O)NCc4ccccc4Cl)o3)cc2)CC1 | 1110 |
| Cc1cccc(NC(=O)C2CCCN(S(=O)(=O)c3c[nH]c(C(=O)N4CCCC4)c3)C2)c1 (stereo not drawn) | 589 |
| COc1ccc(-c2nc3nc(C)cc(C)n3c2Nc2ccc(Cl)cc2)cc1 | 730 |
| O=C(CN1C(=O)NC2(CCCCC2)C1=O)Nc1ccc(F)cc1 | 731 |
| CS(=O)(=O)N1C[C@H]2CCN(Cc3c(F)cccc3Cl)C[C@H]21 | 571 |
| CCc1cccc(Nc2ncccc2S(N)(=O)=O)c1 | 889 |
| COc1cc(C(CC(=O)NC2CCCC2)N2Cc3ccccc3C2=O)cc(OC)c1OC (stereo not drawn) | 755 |
| COc1ccc(S(=O)(=O)N2CCCC(C(=O)N3CCC(Cc4ccccc4)CC3)C2)cc1Cl (stereo not drawn) | 1170 |
| O=C(Cn1ncc2c(N3CCN(c4ccccn4)CC3)ncnc21)Nc1ccc(Cl)cc1 | 643 |
| Cc1ccc(Cl)cc1NCc1nnc2n1CCCCC2 | 739 |
| Cc1ccc(S(=O)(=O)N2CCC(C(=O)NCC(=O)N3CCCc4ccccc43)CC2)cc1 | 843 |
| CC1(C(=O)Nc2ccc(Cl)cc2F)Oc2cccnc2NC1=O (stereo not drawn) | 774 |
| O=C(Cn1cnc2c(-c3ccc(F)cc3)csc2c1=O)Nc1cc(F)ccc1F | 967 |

| SMILES | RP-LC retention time [s] |
| --- | --- |
| Cc1cc(C(=O)N2CCC(c3nc(-c4ccccc4)no3)C2)n[nH]1 (stereo not drawn) | 727 |
| Cc1ccc(NC(=O)Cn2c(C)cc(-c3nnc(C)o3)c2C)c(Cl)c1 | 835 |
| CCc1ccc(-c2nc(-c3ccc4oc(C)nc4c3)no2)cc1 | 1280 |
| CCc1ccc(S(=O)(=O)N2CC(F)(F)C[C@H]2CN2CCc3ccccc3C2)cc1 | 808 |
| CCOC(=O)c1c(N)n(-c2ccccc2OC)c2nc3ccccc3nc12 | 691 |
| CCC(C)NC(=O)C1CCCN(C(=O)Nc2ccc(NC(=O)Nc3ccccc3)cc2)C1 (stereo not drawn) | 730 |
| CNC(=O)OCN1C(=O)C2CC=CCC2C1=O (stereo not drawn) | 677 |
| CCOC(=O)c1cccc(Nc2c(-c3ccc(OC)cc3)nc3cnccn23)c1 | 668 |
| COc1ccc2c(c1)C1(CCN(C(=O)c3ccc(C)c(F)c3)C1)C(=O)N2C (stereo not drawn) | 610 |
| COc1ccccc1NC(=O)N1CCC(n2cnc3c(Cl)cccc3c2=O)CC1 | 830 |
| O=C1CCCc2c1cc(C(=O)NCc1ccccn1)c(=O)n2-c1ccc(C(F)(F)F)cc1 | 678 |
| CCn1cc(S(=O)(=O)Nc2ccc(C)c(C)c2)c2cccnc21 | 887 |
| COc1ccc(-c2noc(N3CCC(C(=O)NCCN4CCOCC4)CC3)n2)cc1OC | 591 |
| Clc1cccc(Nc2c(-c3ccccc3)nc3cnccn23)c1 | 921 |
| Cc1ccc(Sc2ccc(N3CCCC(C(=O)NCc4ccccc4)C3)nn2)cc1 (stereo not drawn) | 905 |
| Cc1cccc(Nc2nc(C(=O)NCc3ccc(F)cc3F)cs2)n1 | 843 |
| COC(=O)c1ccccc1NC(=O)NCc1nc(-c2ccccc2)oc1C | 964 |
| Cn1c(N2CCC(C(=O)N3CCN(c4ccccc4F)CC3)CC2)cc(=O)n(C)c1=O | 716 |
| O=C(c1ccc(F)cc1F)N1CCN(c2cc(-c3ccc(F)cc3)[nH]n2)CC1 | 736 |
| O=C(NCCCc1ccccc1)c1nc(Cn2c(=O)oc3ccccc32)no1 | 952 |
| CCn1nccc1-c1cccc(-c2noc(-c3cnccn3)n2)c1 | 883 |
| CCc1ccc(C2=C(C)C(N3CCC(NC(=O)CCOC)CC3)=NS2(=O)=O)cc1 | 761 |

| SMILES | RP-LC retention time [s] |
| --- | --- |
| COc1ccccc1-c1noc(C2CCCN2C(=O)c2ccc3cc[nH]c3c2)n1 (stereo not drawn) | 830 |
| CC(C(=O)Nc1ccccc1C(F)(F)F)n1cnc2nc3c(cc2c1=O)CCCC3 (stereo not drawn) | 768 |
| Fc1cccc(-c2noc(-c3nnn4c3COC(c3ccc(Cl)cc3)C4)n2)c1 (stereo not drawn) | 1170 |
| CCOc1ccccc1CN1C(=O)C2(CCOCC2)CC1c1nnnn1C(C)(C)C (stereo not drawn) | 799 |
| CC(C)(C)CCN1CCC(F)(c2nc(-c3ccccc3)no2)CC1 | 789 |
| CC(=O)Nc1cccc(NS(=O)(=O)c2ccc3c(c2)OCCCO3)c1 | 676 |
| CC(=O)N1CCc2cc(N3CC(C(=O)NCc4cccc(C)c4)CC3=O)ccc21 (stereo not drawn) | 693 |
| COc1cccc(NC(=O)NC2CCN(c3ccc(C)c(C)c3)C2=O)c1 (stereo not drawn) | 854 |
| CCCNC(=O)C1CCN(S(=O)(=O)c2cc(C(=O)N3CCCCCC3)cs2)CC1 | 783 |
| CC1Cc2ccccc2N1C(=O)CCC(=O)N1CCN(c2cc(=O)n(C(C)C)c(=O)n2C(C)C)CC1 (stereo not drawn) | 890 |
| Cc1ccc(-n2ncc3c(=O)n(Cc4nc(-c5ccccc5)no4)cnc32)cc1Cl | 1190 |
| COc1ccc(C2NC(=O)NC(C)=C2C(=O)OCCc2ccccc2)c(OC)c1 (stereo not drawn) | 957 |
| COc1cc(CNC(=O)c2nc(CCS(=O)(=O)c3ccc(F)cc3)no2)cc(OC)c1OC | 788 |
| CC(C)C(=O)N1CCC(Cc2noc(C3CC3)n2)C1 (stereo not drawn) | 692 |
| O=S(=O)(c1ccc(Cl)s1)N1CCc2nc(-c3ccc(Cl)cc3)ncc2C1 | 1310 |
| Clc1ccc(OCCSc2nnc(-c3ccc4c(c3)OCO4)o2)cc1 | 1130 |
| CCC(CC)C(=O)NCCc1nc2cccnc2n1-c1ccccc1 | 744 |
| COc1ccc(OCc2nnc3sc(-c4cc5ccccc5o4)nn23)cc1 | 984 |
| O=C(Cn1ccc2sccc2c1=O)Nc1ccc(Cl)cc1F | 802 |
| O=C(O)c1cc(N2CCCN(c3ncccn3)CC2)ccc1NC(=O)C1CC1 | 702 |
| CN1C(=O)C2CCCCN2c2ccc(C(=O)N3CCN(Cc4ccc5c(c4)OCO5)CC3)cc21 (stereo not drawn) | 638 |
| Cc1ccc(Cl)cc1NC(=O)N1CCC(n2cnc3cccnc32)CC1 | 682 |
